Consider one substance from patent US20240181000A1, “LGG-DERIVED PEPTIDES AND METHODS OF USE THEREOF” (Ohio State Innovation Foundation, priority 2021, published 2024).

No end group written: not given here.

The test system of this experiment is APEC O78 membrane. As to the kind of experiment: Bacterial cytological profiling (confocal microscopy). The class given is cell-based, E. coli. Particulars: 5×MIC, 3 h. How it is done:
Bacterial cytological profiling (BCP): To identify the mode of action (MOA) of peptides (P1, P2, and P3), BCP approach was used as described previously. […] Following incubation, cultures were centrifuged, and bacteria was resuspended in 100 μL sterile water. FM4-64 (1 μg/mL; Invitrogen™ Molecular Probes™) and Syto-9 (5 μM; Invitrogen™ Molecular Probes™) stains were added to the bacterial cultures and incubated at 4° C. for 45 mins with shaking at 150 rpm. The stained bacteria were centrifuged, pelleted, and resuspended in 10 μL sterile water. The bacterial suspension (3 μL) was transferred onto glass slides containing thin layer of 1.2% agar and 20% LB media for confocal microscopy. Microscopy was performed using Leica TCS SP6 confocal scanning microscope (FM4-64-excitation 515 nm and emission 640 nm: Syto-9-excitation 485 nm and emission 498 nm) at Molecular and Cellular Imaging Center (MCIC), The Ohio State University (mcic.osu.edu/microscopy). Untreated bacterial culture was used as control.

As to PDENK [Peptide P2, PDENK], the “APEC membrane in confocal microscopy (FM4-64/SYTO-9)” value was “no or minimally visible APEC membrane”.
